Test [1] relates to MCF-7/adr adriamycin-resistant breast cancer cell line. As to the kind of experiment: Cell proliferation (CellTiter 96 AQueous MTS/PMS), MCF-7/adr. Format: cell-based. Conditions: Homo sapiens, NCI/ADR-RES; MCF-7/adr; 72 hours of incubation; concentration that induces the death of 50% of the cells; read-out: CI50 for various cell lines (nM) MCF-7/adr. The protocol:
(§1) The effects of the compounds of the invention on the proliferation of cancer cells were studied on various human cancer cell lines of various tissue origins (MCF-7: breast cancer, MCF-7/adr adriamycin-resistant breast cancer, ARH-77: myeloma, ARH-77/Dox: doxorubicin (other name for adriamycin)-resistant myeloma, HL-60: acute promyelocytic leukaemia, HL-60/R10: doxorubicin-resistant acute promyelocytic leukaemia). The cancer cells used for this study were incubated at 37° C. in the presence of one of the compounds of the invention added to the culture medium at various concentrations.
(§2) The cancer cell lines originate from the ATCC (American Type Culture Collection) in the case of MCF-7, ARH-77 and HL-60, from Pharmacell (Paris, France) for HL-60/R10, from Oncodesign (Dijon, France) for ARH-77/Dox and from the Pitié Salpetrière Hospital for MCF-7/adr. They were cultivated in a RPMI 1640 medium containing 2 mM L-glutamine and supplemented with 10% foetal calf serum. All the cell lines were maintained in culture at 37° C. in a moist atmosphere containing 5% CO2. Cell proliferation was evaluated using the “CellTiter 96® AQueous” reagent (Promega, Wis., USA) while adhering to the manufacturer's instructions. The cells were seeded in 96-well culture plates in a proportion of from 5,000 to 10,000 cells per well in 200 μl of culture medium. After 24 hours of preincubation at 37° C., the compounds of the invention dissolved in dimethyl sulphoxide (DMSO) were added individually to each of the wells in a proportion of 2 μl per well. After 72 hours of incubation at 37° C. in a moist atmosphere containing 5% CO2, 40 μL of a MTS/PMS ([3-(4,5-dimethylthiazol-2-yl)-5-(3-carboxymethoxyphenyl)-2-(4-sulphophenyl)-2H-tetrazolium phenazine methosulphate) solution were added to each well.

Test [2] relates to MCF-7 breast cancer cell line. As to the kind of experiment: Cell proliferation (CellTiter 96 AQueous MTS/PMS), MCF-7. Format: cell-based. The note with it: Homo sapiens, MCF7; MCF-7; 72 hours of incubation; concentration that induces the death of 50% of the cells; read-out: CI50 for various cell lines (nM) MCF-7. The method, then: as §1, §2

Data on twelve molecules can be found in US8519188B2, “Compounds which can be used for the treatment of cancers” (Marc-Henry Pitty, priority 2008, dated 2013).

For `C#CC(=O)N(c1cccc(C(F)(F)F)c1)C(C(=O)NC1CCCCC1)c1ccc(C#N)cc1` (stereo not drawn) [Compound 81, Propynoic Acid [(4-cyanophenyl)cyclohexylcarbamoylmethyl]-(3-trifluoromethylphenyl)amide], the results for the IC50 in test [1] and in test [2] were 1.6 nM and 269 nM, respectively.
As to `C#CC(=O)N(c1cccc(C(F)(F)F)c1)C(C(=O)NC1CCCCC1)c1cccc2c1OCO2` (stereo not drawn) [Compound 84, Propynoic Acid (benzo[1,3]dioxol-4-yl-cyclohexylcarbamoylmethyl)-(3-trifluoromethyl-phenyl)amide], the IC50 in test [1] stood at 1.6 nM; in test [2], 250 nM.
Take `C#CC(=O)N(c1cccc(C(F)(F)F)c1)C(C(=O)NC1CCCCC1)c1ccccc1[N+](=O)[O-]` (stereo not drawn) [Compound 85, Propynoic Acid [cyclohexylcarbamoyl-(2-nitrophenyl)methyl]-(3-trifluoromethylphenyl)amide]: the IC50 in test [1] stood at 1.6 nM; in test [2], 177 nM.
Turning to `C#CC(=O)N(c1cccc(C(F)(F)F)c1)C(C(=O)NC1CCCCC1)c1ccc(Cl)cc1Cl` (stereo not drawn) [Compound 86, Propynoic Acid [cyclohexylcarbamoyl-(2,4-dichlorophenyl)methyl]-(3-trifluoromethylphenyl)amide], the IC50 in test [1] was determined as 0.8 nM; in test [2] it was 216 nM.
With `C#CC(=O)N(c1cccc(C(F)(F)F)c1)C(C(=O)NC1CCCCC1)c1ccc(SC)cc1` (stereo not drawn) [Compound 88, Propynoic Acid [cyclohexylcarbamoyl-(4-methylsulphanylphenyl)methyl]-(3-trifluoromethylphenyl)amide], the IC50 came out at 1.4 nM in test [1] and 334 nM in test [2].
The matching figures for `C#CC(=O)N(c1cccc(C(F)(F)F)c1)C(C(=O)NC1CCCCC1)c1ccc(C(C)C)cc1` (stereo not drawn) [Compound 89, Propynoic Acid [cyclo hexylcarbamoyl-(4-isopropylphenyl)methyl]-(3-trifluoromethylphenyl)amide]: 2.2 nM and 825 nM.
The matching figures for `C#CC(=O)N(c1cccc(C(F)(F)F)c1)C(C(=O)NC1CCCCC1)c1cccc(Oc2ccccc2)c1` (stereo not drawn) [Compound 90, Propynoic Acid [cyclohexylcarbamoyl-(3-phenoxyphenyl)methyl]-(3-trifluoromethylphenyl)amide]: 2.2 nM and 820 nM.
The matching figures for `C#CC(=O)N(c1cccc(C(F)(F)F)c1)C(C(=O)NC1CCCCC1)c1cccc(C)c1` (stereo not drawn) [Compound 94, Propynoic Acid (cyclohexylcarbamoyl-m-tolylmethyl)-(3-trifluoromethylphenyl)amide]: 2 nM and 599 nM.
In the case of `C#CC(=O)N(c1cccc(C(F)(F)F)c1)C(C(=O)NC1CCCCC1)c1cccc(C#N)c1` (stereo not drawn) [Compound 95, Propynoic Acid [(3-cyanophenyl)-cyclohexylcarbamoylmethyl]-(3-trifluoromethylphenyl)amide], the IC50 came out at 1.4 nM in test [1] and 243 nM in test [2].
Regarding `C#CC(=O)N(c1cccc(C(F)(F)F)c1)C(C(=O)NC1CCCCC1)c1ccc(C)cc1C` (stereo not drawn) [Compound 100, Propynoic Acid [cyclohexylcarbamoyl-(2,4-dimethylphenyl)methyl]-(3-trifluoromethylphenyl)amide], the IC50 came out at 0.5 nM in test [1] and 308 nM in test [2].
With `C#CC(=O)N(c1cccc(C(F)(F)F)c1)C(C(=O)NC1CCCCC1)c1ccc(N2CCCC2)cc1` (stereo not drawn) [Compound 101, Propynoic Acid [cyclohexylcarbamoyl-(4-pyrrolidin-1-yl-phenyl)methyl]-(3-trifluoromethylphenyl)amide], the IC50 in test [1] turned out to be 1.1 nM; in test [2], 416 nM.
In the case of `C#CC(=O)N(c1cccc(C(F)(F)F)c1)C(C(=O)NC1CCCCC1)c1ccc(Cl)c(Cl)c1` (stereo not drawn) [Compound 102, Propynoic Acid [cyclohexylcarbamoyl-(3,4-dichlorophenyl)methyl]-(3-trifluoromethylphenyl)amide], the IC50 in test [1] stood at 1 nM; in test [2] it was 428 nM.
